According to ChEMBL document CHEMBL5030562, “Synthesis and antiviral evaluation of cytisine derivatives against dengue virus types 1 and 2” (Bioorg Med Chem Lett, 2021):
Active and inactive are the calls of the source. No cut-off for these calls is given here.

Key:
A549 = test: Cytotoxicity against human A549 cells assessed as reduction in cell viability by MTT assay; assay type: functional
[1] = Cytotoxicity against African green monkey Vero E6 cells assessed as reduction in cell viability by MTT assay; assay type: cell-based, Vero C1008; details: chlorocebus sabaeus
dengue virus type 2 [2] = test: Antiviral activity against DENV2 infected in African green monkey Vero E6 cells assessed as reduction in induced cytopathic effect at 10 uM after 96 hrs by immunofluorescent staining based inverted microscopic analysis; assay type: functional, organism-based
dengue virus type 2 [3] = test: Antiviral activity against DENV2 infected in African green monkey Vero E6 cells assessed as inhibition of virus induced cytopathic effect at 10 uM measured after 96 hrs by immunofluorescent staining based inverted microscopic analysis relative to control; assay type: functional; details: Vero C1008
[4] = Selectivity index, ratio of CC50 for cytotoxicity in African green monkey Vero E6 cells to IC50 for Antiviral activity against DENV2 infected in African green monkey Vero E6 cells; assay type: toxicity, cell-based, Vero C1008; details: read-out: Ratio CC50/IC50
Hepatitis B virus = test: Antiviral activity against Hepatitis B virus; assay type: functional, organism-based
dengue virus type 1 [5] = test: Antiviral activity against DENV1 infected in African green monkey Vero E6 cells assessed as inhibition of virus induced cytopathic effect measured after 96 hrs by immunofluorescent staining based inverted microscopic analysis; assay type: functional, organism-based; details: Vero C1008, 96 h
dengue virus type 2 [6] = test: Antiviral activity against Dengue virus 2 infected in African green monkey Vero E6 cells assessed as inhibition of viral replication at attachment stage measured after 96 hrs by DAPI staining based fluorescence microscopic analysis; assay type: functional, organism-based; details: Vero C1008, 96 h
dengue virus type 1 [7] = test: Antiviral activity against DENV1 infected in African green monkey Vero E6 cells assessed as reduction in induced cytopathic effect at 10 uM after 96 hrs by immunofluorescent staining based inverted microscopic analysis; assay type: functional, organism-based
dengue virus type 2 [8] = test: Antiviral activity against Dengue virus 2 infected in African green monkey Vero E6 cells assessed as inhibition of viral replication at post entry stage measured after 96 hrs by DAPI staining based fluorescence microscopic analysis; assay type: functional, organism-based; details: Vero C1008, 96 h
dengue virus type 1 [9] = test: Selectivity index, ratio of CC50 for cytotoxicity in African green monkey Vero E6 cells to IC50 for Antiviral activity against DENV1 infected in African green monkey Vero E6 cells; assay type: functional, Vero C1008
dengue virus type 2 [10] = test: Antiviral activity against Dengue virus 2 infected in African green monkey Vero E6 cells assessed as inhibition of viral replication at entry stage measured after 96 hrs by DAPI staining based fluorescence microscopic analysis; assay type: functional, organism-based; details: Vero C1008, 96 h
[11] = Selectivity index, ratio of CC50 for cytotoxicity in human A549 cells to IC50 for Antiviral activity against DENV2 infected in African green monkey Vero E6 cells; assay type: toxicity, cell-based
Human respirovirus 3 = test: Antiviral activity against Parainfluenza virus type 3; assay type: functional, organism-based
dengue virus type 1 [12] = test: Antiviral activity against DENV1 infected in African green monkey Vero E6 cell assessed as inhibition of virus induced cytopathic effect at 10 uM measured after 96 hrs by immunofluorescent staining based inverted microscopic analysis relative to control; assay type: functional; details: Vero C1008
Influenza A virus = test: Antiviral activity against Influenza A virus; assay type: functional, organism-based
dengue virus type 2 [13] = test: Antiviral activity against DENV2 infected in African green monkey Vero E6 cells assessed as inhibition of virus induced cytopathic effect measured after 96 hrs by immunofluorescent staining based inverted microscopic analysis; assay type: functional, organism-based; details: Vero C1008, 96 h
dengue virus type 2 [14] = test: Antiviral activity against DENV2 infected in human A549 cells assessed as inhibition of virus induced cytopathic effect measured after 96 hrs by immunofluorescent staining based inverted microscopic analysis; assay type: functional, organism-based; details: A549, 96 h

Row | Compound | CC50 (A549) | CC50 [1] | Activity (dengue virus type 2 [2]) | inhibition at 10 µM (dengue virus type 2 [3]) | selectivity ratio [4] | IC50 (Hepatitis B virus) | IC50 (dengue virus type 1 [5]) | IC50 (dengue virus type 2 [6]) | Activity (dengue virus type 1 [7]) | IC50 (dengue virus type 2 [8]) | Ratio CC50/IC50 (dengue virus type 1 [9]) | IC50 (dengue virus type 2 [10]) | selectivity ratio [11] | IC50 (Human respirovirus 3) | inhibition at 10 µM (dengue virus type 1 [12]) | IC50 (Influenza A virus) | IC50 (dengue virus type 2 [13]) | IC50 (dengue virus type 2 [14])
1 | CN1C[C@H]2C[C@@H](C1)c1ccc(NC/C=C/c3ccccc3)c(=O)n1C2 | > 50000 nM | > 50000 nM | Active | 3.2% |  |  |  |  |  |  |  |  |  |  |  |  |  | 
2 | Cn1cc(CNc2ccc3n(c2=O)C[C@@H]2C[C@H]3CN(Cc3ccccc3)C2)c(=O)n(C)c1=O (single isomer, unassigned) | > 50000 nM | > 50000 nM | Active | 58.8% |  |  |  |  |  |  |  |  |  |  |  |  |  | 
3 | Cn1cc(CNc2ccc3n(c2=O)C[C@@H]2C[C@H]3CN(C(=O)Nc3ccccc3)C2)c(=O)n(C)c1=O | > 50000 nM | > 50000 nM | Active | 74% | > 500 | > 3000 nM | 490 nM | 6450 nM | Active | < 100 nM | >102 | 844 nM | > 106 | > 3000 nM | 57.7% | > 3000 nM | < 100 nM | 470 nM
4 | O=c1ccc(Cl)c2n1C[C@@H]1C[C@H]2CN(C(=S)Nc2ccccc2)C1 | > 50000 nM | > 50000 nM | Active | 11.2% |  |  |  |  |  |  |  |  |  |  |  |  |  | 
5 | Cn1cc(CNc2ccc3n(c2=O)C[C@@H]2C[C@H]3CN3CCCCC23)c(=O)n(C)c1=O (stereo partly specified) | > 50000 nM | > 50000 nM | Active | 53.3% |  |  |  |  |  |  |  |  |  |  |  |  |  | 
6 | CN1C[C@H]2C[C@@H](C1)c1ccc(NCc3cn(C)c(=O)n(C)c3=O)c(=O)n1C2 (single isomer, unassigned) | > 50000 nM | > 50000 nM | Active | 79.2% | > 109 | > 3000 nM | 1380 nM | 9300 nM | Active | 237 nM | >36.2 | 1840 nM | > 75.8 | > 3000 nM | 73.9% | > 3000 nM | < 100 nM | 660 nM
7 | CCOC(=O)CNC(=S)Nc1ccc2n(c1=O)C[C@@H]1C[C@H]2CN(C)C1 | > 50000 nM | > 50000 nM | Active | 60.9% |  |  |  |  |  |  |  |  |  |  |  |  |  | 
8 | CC(C)NC(=O)Nc1ccc2n(c1=O)C[C@@H]1C[C@H]2CN(C)C1 (single isomer, unassigned) | > 50000 nM | > 50000 nM | Active | 19.7% |  |  |  |  |  |  |  |  |  |  |  |  |  | 
9 | CCOC(=O)CNC(=O)Nc1ccc2n(c1=O)C[C@@H]1C[C@H]2CN(C)C1 (single isomer, unassigned) | > 50000 nM | > 50000 nM | Active | 40.3% |  |  |  |  |  |  |  |  |  |  |  |  |  | 
10 | C=CCN1C[C@H]2C[C@@H](C1)c1ccc(NCc3cn(C)c(=O)n(C)c3=O)c(=O)n1C2 | > 50000 nM | > 50000 nM | Active | 43.3% |  |  |  |  |  |  |  |  |  |  |  |  |  | 
11 | O=c1cccc2n1C[C@@H]1C[C@H]2CN(C(=S)Nc2ccccc2)C1 | > 50000 nM | > 50000 nM | Active | 59.4% |  |  |  |  |  |  |  |  |  |  |  |  |  | 
12 | CN1C[C@H]2C[C@@H](C1)c1ccc(NCc3ccccc3O)c(=O)n1C2 | > 50000 nM | > 50000 nM | Active | 39% |  |  |  |  |  |  |  |  |  |  |  |  |  | 
13 | C=CCNC(=S)N1C[C@H]2C[C@@H](C1)c1ccc([N+](=O)[O-])c(=O)n1C2 | > 50000 nM | > 50000 nM | Active | 48.9% |  |  |  |  |  |  |  |  |  |  |  |  |  | 
14 | C=CCNC(=S)N1C[C@H]2C[C@@H](C1)c1cccc(=O)n1C2 | > 50000 nM | > 50000 nM | Active | 86.4% | > 500 | > 3000 nM | 140 nM | 315 nM | Active | 7510 nM | >357.1 | < 100 nM | > 500 | > 3000 nM | 81.2% | > 3000 nM | < 100 nM | < 100 nM
15 | COC(=O)CN1C[C@H]2C[C@@H](C1)c1ccc(NCc3cn(C)c(=O)n(C)c3=O)c(=O)n1C2 | > 50000 nM | > 50000 nM | Active | 63.9% |  |  |  |  |  |  |  |  |  |  |  |  |  | 
16 | CN1C[C@H]2C[C@@H](C1)c1ccc(NCc3ccc(O)cc3)c(=O)n1C2 | > 50000 nM | > 50000 nM | Active | 70.6% | > 21.7 | > 3000 nM | 970 nM | > 10000 nM | Active | < 100 nM | >51.5 | 471 nM | > 64.1 | > 3000 nM | 64.8% | > 3000 nM | 2300 nM | 780 nM
17 | CN1C[C@H]2C[C@@H](C1)c1ccc([N+](=O)[O-])c(=O)n1C2 | > 50000 nM | > 50000 nM | Active | 76.7% | > 500 | > 3000 nM | 2400 nM | 837 nM | Active | 1370 nM | >20.8 | 1130 nM | > 64.9 | > 3000 nM | 61.2% | > 3000 nM |  | 770 nM
18 | CC(C)NC(=S)Nc1ccc2n(c1=O)C[C@@H]1CC2CN(C)C1 (single isomer, unassigned) | > 50000 nM | > 50000 nM | Active | 61.4% |  |  |  |  |  |  |  |  |  |  |  |  |  | 
